From ChEMBL document CHEMBL1201862, “PubChem BioAssay data set” (2004)
Calls of active or inactive are those of the source.

What was measured:
INS1 [1] = assay: INS-1E mitochondrial potential rescue under cytokines – cell-based, JC-1 fluorescence ratio, dry powder, dose response (AID 488931); assay type: functional; conditions: Rattus norvegicus
cells [2] = assay type: functional, cell-based
HEK293 [3] = assay: cells; assay type: functional, cell-based; conditions: Homo sapiens
[4] = Vero E6 cell cytotoxicity, dose response, cytotoxicity control for non-replicating M. tuberculosis project, secondary assay (AID 492998); assay type: functional, VeroE6; conditions: Vero C1008
cells [5] = assay type: functional, cell-based; remark: listed apart in the source
[6] = test system: Streptococcus sp. 'group A'; assay: Streptococcus pyogenes SK(-)GAS viability under kanamycin – luminescence, BacTiterGlo, confirmation, counter-screen for streptokinase expression inhibitor project, dose response (AID 1900); assay type: functional, organism-based
[7] = target: T1, Microphthalmia-associated transcription factor (Homo sapiens, UniProt O75030); assay: reducers of TRPM1 reporter luminescence, concentration series – cell-based, SK-MEL-5, cherry-picked, set 3, MITF inhibitor project, dose response (AID 493073); assay type: functional;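 note: SK-MEL-5 melanoma cells with luciferase driven by the MITF target TRPM1 promoter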
T1 sequence (O75030 whole entry): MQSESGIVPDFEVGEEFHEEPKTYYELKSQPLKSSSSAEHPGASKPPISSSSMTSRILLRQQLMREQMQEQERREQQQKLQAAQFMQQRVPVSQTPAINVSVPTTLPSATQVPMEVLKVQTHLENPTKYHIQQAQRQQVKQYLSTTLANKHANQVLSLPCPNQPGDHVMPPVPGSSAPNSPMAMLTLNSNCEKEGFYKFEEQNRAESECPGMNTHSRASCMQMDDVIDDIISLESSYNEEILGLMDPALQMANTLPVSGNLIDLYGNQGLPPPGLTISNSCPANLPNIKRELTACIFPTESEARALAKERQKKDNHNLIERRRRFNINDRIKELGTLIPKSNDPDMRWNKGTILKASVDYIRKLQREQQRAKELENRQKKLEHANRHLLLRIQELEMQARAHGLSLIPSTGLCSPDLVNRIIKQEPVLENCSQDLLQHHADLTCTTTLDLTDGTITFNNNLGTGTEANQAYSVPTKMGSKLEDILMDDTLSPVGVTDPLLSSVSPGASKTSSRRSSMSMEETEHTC

HEK293 [8] = assay: NOD2 signaling inhibitors in MDP-stimulated cells, cell-based, uHTS, luminescence (AID 2001); assay type: functional; conditions: Homo sapiens
HEK293 [9] = assay: cells; assay type: functional, cell-based; conditions: Homo sapiens; remark: listed apart in the source
[10] = target: C-C chemokine receptor type 6 (Homo sapiens, UniProt P51684); assay: antagonism of CCR6 beta-arrestin recruitment – cell-based, luminescent beta-arrestin readout, dose response (AID 504728); assay type: functional
Sequence of C-C chemokine receptor type 6 (P51684 whole entry, the tested form may be a part): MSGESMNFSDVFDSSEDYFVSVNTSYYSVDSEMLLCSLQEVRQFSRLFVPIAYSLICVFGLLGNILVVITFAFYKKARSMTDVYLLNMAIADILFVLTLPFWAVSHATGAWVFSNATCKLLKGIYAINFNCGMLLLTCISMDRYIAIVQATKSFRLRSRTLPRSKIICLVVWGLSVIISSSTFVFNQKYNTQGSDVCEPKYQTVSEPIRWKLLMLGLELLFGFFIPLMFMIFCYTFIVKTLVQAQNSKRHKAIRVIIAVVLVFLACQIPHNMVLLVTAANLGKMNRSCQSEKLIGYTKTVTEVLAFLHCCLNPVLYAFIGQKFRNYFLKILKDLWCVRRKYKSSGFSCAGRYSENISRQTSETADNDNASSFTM

[11] = target: Nucleotide-binding oligomerization domain-containing protein 2 (Homo sapiens, UniProt Q9HC29); assay: inhibition of NOD2-driven NF-kB reporter – cell-based, luminescence, uHTS, HEK293 (AID 1566); assay type: functional
Sequence of Nucleotide-binding oligomerization domain-containing protein 2 (Q9HC29 whole entry, the tested form may be a part): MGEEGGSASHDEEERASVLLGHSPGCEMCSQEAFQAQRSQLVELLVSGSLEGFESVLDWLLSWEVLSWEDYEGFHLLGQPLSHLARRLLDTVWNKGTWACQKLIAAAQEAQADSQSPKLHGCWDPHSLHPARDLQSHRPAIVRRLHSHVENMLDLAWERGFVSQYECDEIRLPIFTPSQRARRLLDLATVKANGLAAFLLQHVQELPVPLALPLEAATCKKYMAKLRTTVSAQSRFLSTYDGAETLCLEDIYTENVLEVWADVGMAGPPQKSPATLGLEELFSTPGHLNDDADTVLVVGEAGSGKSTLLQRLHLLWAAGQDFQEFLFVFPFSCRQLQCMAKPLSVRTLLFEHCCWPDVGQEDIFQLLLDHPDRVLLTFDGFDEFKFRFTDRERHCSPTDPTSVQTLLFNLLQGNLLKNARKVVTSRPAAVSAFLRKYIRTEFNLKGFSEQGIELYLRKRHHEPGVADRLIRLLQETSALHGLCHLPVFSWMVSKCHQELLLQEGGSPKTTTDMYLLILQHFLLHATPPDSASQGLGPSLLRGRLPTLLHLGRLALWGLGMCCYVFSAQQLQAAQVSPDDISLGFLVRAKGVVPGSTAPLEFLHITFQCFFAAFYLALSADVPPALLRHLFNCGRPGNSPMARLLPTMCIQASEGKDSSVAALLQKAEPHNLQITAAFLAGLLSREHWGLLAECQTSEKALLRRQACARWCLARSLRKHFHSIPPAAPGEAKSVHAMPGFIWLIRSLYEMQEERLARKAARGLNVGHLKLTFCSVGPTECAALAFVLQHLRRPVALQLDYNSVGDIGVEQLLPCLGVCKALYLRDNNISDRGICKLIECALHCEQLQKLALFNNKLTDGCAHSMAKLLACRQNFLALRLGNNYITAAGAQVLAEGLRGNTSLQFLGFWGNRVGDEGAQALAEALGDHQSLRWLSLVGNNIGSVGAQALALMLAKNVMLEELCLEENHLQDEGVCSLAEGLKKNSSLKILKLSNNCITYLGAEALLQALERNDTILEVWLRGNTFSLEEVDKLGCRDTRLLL

[12] = Trypanosoma cruzi growth suppression in host cells – NIH3T3 host cells, beta-gal luminescence, confirmation (AID 2044); assay type: functional, cell-based;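 note: intracellular parasites grown in NIH/3T3 mouse fibroblasts as host cells; luminescent beta-galactosidase reporter signal from transgenic T. cruzi replicating inside host cells; inhibitors lower the luminescence signal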
[13] = THP-1 cell cytotoxicity, dose response, cytotoxicity control for non-replicating M. tuberculosis project (AID 489025); assay type: functional
[14] = HepG2 cell cytotoxicity, dose response, cytotoxicity control for non-replicating M. tuberculosis project (AID 489018); assay type: functional; conditions: Mycobacterium tuberculosis
Beta-galactosidase = Beta-galactosidase (Escherichia coli, UniProt Q8VNN2); assay: detection-enzyme interference by beta-gal modulators – biochemical, E. coli enzyme, set 3, artefact control for CCR6 antagonist project, dose response (AID 504712); assay type: functional
Sequence of Beta-galactosidase (Q8VNN2 whole entry): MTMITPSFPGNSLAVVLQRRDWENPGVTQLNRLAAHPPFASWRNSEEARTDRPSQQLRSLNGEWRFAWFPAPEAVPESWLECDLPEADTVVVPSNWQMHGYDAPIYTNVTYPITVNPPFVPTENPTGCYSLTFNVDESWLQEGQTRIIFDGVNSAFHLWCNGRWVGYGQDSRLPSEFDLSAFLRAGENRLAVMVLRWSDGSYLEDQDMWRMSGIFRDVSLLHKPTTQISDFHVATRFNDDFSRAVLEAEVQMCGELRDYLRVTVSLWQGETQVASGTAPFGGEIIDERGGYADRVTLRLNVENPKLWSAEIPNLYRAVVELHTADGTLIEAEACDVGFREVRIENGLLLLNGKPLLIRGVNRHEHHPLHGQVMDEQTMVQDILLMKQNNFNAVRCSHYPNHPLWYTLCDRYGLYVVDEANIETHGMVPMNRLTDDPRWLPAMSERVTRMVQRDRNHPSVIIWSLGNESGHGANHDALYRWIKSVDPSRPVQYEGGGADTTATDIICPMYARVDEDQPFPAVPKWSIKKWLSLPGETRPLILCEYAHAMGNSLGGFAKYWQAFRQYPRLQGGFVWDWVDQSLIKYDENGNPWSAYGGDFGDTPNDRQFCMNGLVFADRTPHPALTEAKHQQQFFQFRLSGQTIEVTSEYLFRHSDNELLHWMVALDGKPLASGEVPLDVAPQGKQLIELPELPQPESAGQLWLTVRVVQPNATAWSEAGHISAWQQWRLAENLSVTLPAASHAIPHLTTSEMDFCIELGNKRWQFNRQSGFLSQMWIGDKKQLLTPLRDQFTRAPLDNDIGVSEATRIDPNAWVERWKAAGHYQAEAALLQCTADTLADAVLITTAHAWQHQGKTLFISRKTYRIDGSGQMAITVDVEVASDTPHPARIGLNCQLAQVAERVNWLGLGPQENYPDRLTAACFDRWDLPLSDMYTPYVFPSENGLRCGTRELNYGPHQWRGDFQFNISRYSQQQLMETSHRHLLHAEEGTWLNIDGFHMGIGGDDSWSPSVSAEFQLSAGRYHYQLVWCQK

Streptokinase A = target: T2, Streptokinase A (Streptococcus pyogenes serotype M1, UniProt P10520); assay: viability-normalized secreted streptokinase activity reduction – plasminogen activation absorbance, OD405, dose response (AID 1914); assay type: functional, Streptococcus pyogenes M1 GAS;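 note: secreted streptokinase activity via plasminogen activation per viability signal from cell pellet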
T2 sequence (P10520 whole entry): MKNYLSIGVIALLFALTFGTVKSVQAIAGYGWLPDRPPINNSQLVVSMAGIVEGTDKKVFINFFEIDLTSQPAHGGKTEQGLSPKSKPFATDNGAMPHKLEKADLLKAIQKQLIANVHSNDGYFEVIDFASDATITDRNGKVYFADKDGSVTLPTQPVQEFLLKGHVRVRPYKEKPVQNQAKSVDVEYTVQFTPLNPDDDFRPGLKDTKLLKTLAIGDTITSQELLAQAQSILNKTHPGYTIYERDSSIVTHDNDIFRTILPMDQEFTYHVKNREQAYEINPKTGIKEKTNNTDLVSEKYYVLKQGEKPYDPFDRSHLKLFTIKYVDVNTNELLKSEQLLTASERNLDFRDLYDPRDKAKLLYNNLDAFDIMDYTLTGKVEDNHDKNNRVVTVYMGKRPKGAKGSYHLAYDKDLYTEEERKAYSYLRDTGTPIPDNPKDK

[15] = NIH3T3 cell viability loss – ATP luminescence, mouse fibroblasts, counter-screen, dose response (AID 2010); assay type: functional, cell-based;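 note: cells exposed to compound for about 90 hours before reading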
HEK293 [16] = assay: inhibition of NOD1-driven NF-kB reporter – cell-based, luminescence, uHTS, primary screen (AID 1578); assay type: functional; conditions: Homo sapiens
Streptococcus = assay: GAS UMAA2166 growth inhibition – luminescence, BacTiterGlo, counter-screen for streptokinase expression inhibitor project, dose response (AID 1915); assay type: functional, organism-based;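 note: potency for reduction of bacterial viability or growth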
cells [17] = assay type: functional
A-375 = assay: MITF: Counter assay: A375 proliferation Measured in Cell-Based System Using Plate Reader - 2084-03_Inhibitor_Dose_DryPowder_Activity. [Related pubchem assays (depositor defined):AID488944]; assay type: functional; conditions: Homo sapiens
Nonstructural protein 1 = Nonstructural protein 1 (Influenza A virus, UniProt Q194T2); assay type: functional, Influenza A virus (A/California/07/2009(H1N1))
Sequence of Nonstructural protein 1 (Q194T2 whole entry): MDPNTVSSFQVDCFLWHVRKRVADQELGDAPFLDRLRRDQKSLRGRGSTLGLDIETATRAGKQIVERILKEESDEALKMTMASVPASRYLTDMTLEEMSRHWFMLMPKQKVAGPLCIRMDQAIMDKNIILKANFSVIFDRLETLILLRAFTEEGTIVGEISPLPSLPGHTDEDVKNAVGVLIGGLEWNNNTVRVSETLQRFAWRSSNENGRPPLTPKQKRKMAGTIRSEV

HEK293 [18] = assay: cells; assay type: functional, cell-based; conditions: Homo sapiens; remark: listed apart in the source
INS1 [19] = assay: INS-1E survival protection against cytokine death – cell-based, luminescence, retest, dose response (AID 449756); assay type: functional; conditions: Rattus norvegicus;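 note: cell death triggered by IL-1 beta plus TNF-alpha plus IFN-gamma mixture; protective hits raise ATP signal compared with cytokine alone wells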

Q: Which AC50 (INS1 [1]) does the source give for `COc1ccc(S(=O)(=O)N(C)C[C@@H]2Oc3c(NC(=O)c4ccncc4)cccc3C(=O)N([C@@H](C)CO)C[C@H]2C)cc1` here?
A: 32.7 µM (active)

Q: Which EC50 (cells [2]) does the source give for `O=[N+]([O-])c1cc(Cl)cc(/C=N\Nc2ccccn2)c1O` here?
A: > 350 µM (not active)

Q: What about the IC50 (HEK293 [3]) of the same molecule?
A: > 20 µM (inactive)

Q: What about the CC50 [4] of the same molecule?
A: 1.24 µM (active)

Q: And the EC50 (cells [5])?
A: 11.8 µM (active)

Q: And the EC50 [6]?
A: 3.56 µM (active)

Q: What about the AC50 [7] of the same molecule?
A: 4.49 µM (active)

Q: What about the IC50 (HEK293 [8]) of the same molecule?
A: > 20 µM (inactive)

Q: And the IC50 (HEK293 [9])?
A: > 20 µM (inactive)

Q: What about the IC50 [10] of the same molecule?
A: > 66.6 µM (inactive)

Q: And the EC50 [11]?
A: > 20 µM (inactive)

Q: And the EC50 [12]?
A: 0.204 µM (active)

Q: And the CC50 [13]?
A: 0.147 µM (active)

Q: What about the CC50 [14] of the same molecule?
A: 0.987 µM (active)

Q: What about the IC50 (Beta-galactosidase) of the same molecule?
A: > 66.6 µM (inactive)

Q: What about the EC50 (Streptokinase A) of the same molecule?
A: 11.1 µM (active)

Q: And the EC50 [15]?
A: 5.6 µM (active)

Q: And the EC50 (HEK293 [16])?
A: 9.12 µM (active)

Q: And the EC50 (Streptococcus)?
A: 7.53 µM (active)

Q: And the IC50 (cells [17])?
A: 6.12 µM (active)

Q: What about the AC50 (A-375) of the same molecule?
A: 40.6 µM (active)

Q: What about the IC50 (Nonstructural protein 1) of the same molecule?
A: 3.89 µM (active)

Q: What about the IC50 (HEK293 [18]) of the same molecule?
A: > 20 µM (inactive)

Q: What about the AC50 (INS1 [19]) of the same molecule?
A: 0.964 µM (active)
